Patent publication US8178486B2, “Method for promoting hair growth” (Animal Technology Institute Taiwan, priority 2005, dated 2012)

System: hair follicles
Assay: Hair growth in 4-month old female mice, topical application to shaved dorsal skin
Assay type: in vivo
Method: The marked areas of the mice were applied by spreading topically on the exposed skin areas 60 μl of aqueous solutions of bovine lactoferrin (200 mg/ml), 60 μl of control vehicle (water), and 60 μl of bovine lactoferricin, obtained as set forth in Example 3, (200 mg/ml) twice daily. Observation for hair growth in the marked areas is made daily after the first treatment. […] The hair growth-promoting effect of lactoferrin or lactoferricin was consistently observed in all tested mice. Although lactoferricin was prepared by the method described in Example 3 above, the present invention should not be limited to use only lactoferricin prepared in such manner. Lactoferricin prepared by other methods would still fall within the scope of the present invention.

Substance: lactoferricin
- amount of hair growth compared with area treated with lactoferrin of the same amount (200 mg/ml topically twice daily, 10 days): greater amount of hair growth
- hair growth observed in the treated skin area (60 μl of 200 mg/ml topically twice daily, after 10 days, not seen with control vehicle): prominent hair growth
